Results reported in US8530650B2, “2, 5-diamino-substituted pyrido [4, 3-D] pyrimidines as autotaxin inhibitors against cancer” (MERCK PATENT GmbH, priority 2008, dated 2013).

Target: T1, recombinant autotaxin (Homo sapiens, UniProt Q13822)
T1 construct: made in house; host or cells: Hi5 insect cells (baculovirus)
Test: Autotaxin assay (Amplex Red, LPC substrate)
Type: biochemical
Conditions: 75 μM LPC, Amplex Red fluorescence, ten 1:3 dilutions starting at 30 μM
Experimental: Autotaxin activity is measured indirectly by means of Amplex Red Reagent. In this course, Amplex Red is measured as fluorogenic indicator for generated H2O2. Autotaxin converts substrate lysophosphatidylcholine (LPC) to phosphocholine and lysophosphatidylic acid (LPA). After the conversion phosphocholine is reacted with alkaline phosphatase to obtain inorganic phosphate and choline. During the next step choline is oxidized with choline oxidase to yield betaine, whereby H2O2 is generated. H2O2 reacts with Amplex Red Reagent in the presence of peroxidase (Horseradish peroxidase) in an 1:1 stochiometry and yields highly fluorescent resorufin. The generated fluorescence is measured in a reaction-dependent kinetic mode in order to enable subtraction of fluorescence signals of possible other fluorescent compounds that are not part of the reaction from total measured fluorescence.
1.5 μl of a standard solution or of the compounds of the invention are dissolved in 20 mM Hepes pH 7.2 with maximally 7.7% DMSO in individual concentrations. The resulting solution is pre-incubated together with 10 μl (16 ng) of highly purified recombinant autotaxin in a black 384-hole microtiter plate for 30 min at 22° C. Thereafter, the reaction is started through the addition of 5 μL-a-lysophosphatidylcholine (LPC), whereby the final concentration of LPC is 75 μM. The mixture is incubated for 90 min. at 37° C. After the incubation Amplex Red Reagent, peroxidase (Horseradish peroxidase) and choline oxidase are added. The fluorescence is immediately measured at a wavelength of 612 nm with an excitation wavelength of 485 nm in a “Tecan Ultra multimode” fluorescence reader. The activity of autotaxin is indirectly calculated via the amount of detected generated H2O2.
For IC50 analysis, ten serial 1:3 dilutions starting at 30 μM for each compound were run in duplicates.
IC50 values were calculated on normalized data. For normalization, control wells were added to each assay plate and the signal of uninhibited control wells was set to 100%, whereas the signal inhibited by 500 μM C14 LPA, (Avanti Polar Lipids, Cat# 857120P) was set to 0%. Curves were fitted and IC50 values calculated by the following model using proprietary analysis software: Y=Bottom+(100−Bottom)/(1+10^((LogIC50−X)*HillSlope))
Where X is the logarithm of concentration. Y is the response; Y starts at Bottom and goes to Top with a sigmoid shape.
Protein: Recombinant autotaxin (baculoviral Hi5 expression)
Substrate: L-a-lysophosphatidyl choline (chicken egg); Avanti Polar Lipids #830071 P
Standard: C14 LPA, Avanti Polar Lipids, Cat# 857120P
Detection Reagent Amplex Red Reagent; Invitrogen #A12222; dissolved in 1.923 ml of DMSO peroxidase Type VI-A (horseradish), Sigma #P6782; dissolved in 7.45 ml of test buffer, Choline Oxidase; Sigma #C5896; dissolved in 2.47 ml test buffer
Detection Reagent Mix: 1:100 dilution of Amplex Red Regent in test buffer
Test buffer: 200 mM Tris-HCl, Merck, Cat # 1.08219, pH 7.9; 0.1% BSA, lipid free, Roche Cat#775835

SMILES	IC50
Cc1ccccc1Nc1nccc2nc(NCc3ccc(Cl)cc3)ncc12 [Compound 43, N2-(4-Chloro-benzyl)-N5-o-tolyl-pyrido[4,3-d]pyrimidine-2,5-diamine]	< 30 µM
COc1ccc(Nc2nccc3nc(NCc4ccc(Cl)cc4)ncc23)cc1 [Compound 44, N2-(4-Chloro-benzyl)-N5-(4-methoxy-phenyl)-pyrido[4,3-d]pyrimidine-2,5-diamine]	< 30 µM
Fc1ccc(Nc2nccc3nc(NCc4ccc(Cl)cc4)ncc23)c(F)c1 [Compound 45, N2-(4-Chloro-benzyl)-N5-(2,4-difluoro-phenyl)-pyrido[4,3-d]pyrimidine-2,5-diamine]	< 30 µM
Clc1ccc(CNc2ncc3c(Nc4ccc5c(c4)OCO5)nccc3n2)cc1 [Compound 46, N5-Benzo[1,3]dioxol-5-yl-N2-(4-chloro-benzyl)-pyrido[4,3-d]pyrimidine-2,5-diamine]	< 30 µM
COc1ccc(Nc2nccc3nc(NCc4ccc(Cl)cc4)ncc23)cc1OC [Compound 47, N2-(4-Chloro-benzyl)-N5-(3,4-dimethoxy-phenyl)-pyrido[4,3-d]pyrimidine-2,5-diamine]	< 30 µM
Fc1ccc(Nc2nccc3nc(NCc4ccc(Cl)cc4)ncc23)cc1F [Compound 48, N2-(4-Chloro-benzyl)-N5-(3,4-difluoro-phenyl)-pyrido[4,3-d]pyrimidine-2,5-diamine]	< 30 µM
Cc1cc(F)ccc1Nc1nccc2nc(NCc3ccc(Cl)cc3)ncc12 [Compound 49, N2-(4-Chloro-benzyl)-N5-(4-fluoro-2-methyl-phenyl)-pyrido[4,3-d]pyrimidine-2,5-diamine]	< 30 µM
COC(=O)c1ccc(Nc2nccc3nc(NCc4ccc(Cl)cc4)ncc23)cc1 [Compound 50, 4-[2-(4-Chloro-benzylamino)-pyrido[4,3-d]pyrimidin-5-ylamino]-benzoic acid methyl ester]	< 30 µM
COc1ccc(CNc2ncc3c(Nc4cc(OC)ccc4OC)nccc3n2)cc1 [Compound 51, N5-(2,5-Dimethoxy-phenyl)-N2-(4-methoxy-benzyl)-pyrido[4,3-d]pyrimidine-2,5-diamine]	< 30 µM
COc1ccc(CNc2ncc3c(Nc4ccc(F)cc4F)nccc3n2)cc1 [Compound 52, N5-(2,4-Difluoro-phenyl)-N2-(4-methoxy-benzyl)-pyrido[4,3-d]pyrimidine-2,5-diamine]	< 30 µM
COc1ccc(CNc2ncc3c(Nc4ccc5c(c4)OCO5)nccc3n2)cc1 [Compound 53, N5-Benzo[1,3]dioxol-5-yl-N2-(4-methoxy-benzyl)-pyrido[4,3-d]pyrimidine-2,5-diamine]	< 30 µM
COc1ccc(CNc2ncc3c(Nc4ccc(OC)c(OC)c4)nccc3n2)cc1 [Compound 54, N5-(3,4-Dimethoxy-phenyl)-N2-(4-methoxy-benzyl)-pyrido[4,3-d]pyrimidine-2,5-diamine]	< 30 µM
COc1ccc(CNc2ncc3c(Nc4ccc5c(c4)OCCO5)nccc3n2)cc1 [Compound 55, N5-(2,3-Dihydro-benzo[1,4]dioxin-6-yl)-N2-(4-methoxy-benzyl)-pyrido[4,3-d]pyrimidine-2,5-diamine]	< 30 µM
COc1ccc(CNc2ncc3c(Nc4ccc(OC)cc4OC)nccc3n2)cc1 [Compound 56, N5-(2,4-Dimethoxy-phenyl)-N2-(4-methoxy-benzyl)-pyrido[4,3-d]pyrimidine-2,5-diamine]	< 30 µM
COc1ccc(CNc2ncc3c(Nc4ccc(C#N)cc4)nccc3n2)cc1 [Compound 57, 4-[2-(4-Methoxy-benzylamino)-pyrido[4,3-d]pyrimidin-5-ylamino]-benzonitrile]	< 30 µM
COc1ccc(CNc2ncc3c(Nc4ccc(F)c(F)c4)nccc3n2)cc1 [Compound 58, N5-(3,4-Difluoro-phenyl)-N2-(4-methoxy-benzyl)-pyrido[4,3-d]pyrimidine-2,5-diamine]	< 30 µM
O=C(NCc1ccco1)C1CCN(c2nccc3nc(NCc4ccccc4)ncc23)CC1 [Compound 60, 1-(2-Benzylamino-pyrido[4,3-d]pyrimidin-5-yl)-piperidine-4-carboxylic acid (furan-2-ylmethyl)-amide]	< 30 µM
CC(C)NC(=O)C1CCN(c2nccc3nc(NCc4ccccc4)ncc23)CC1 [Compound 61, 1-(2-Benzylamino-pyrido[4,3-d]pyrimidin-5-yl)-piperidine-4-carboxylic acid isopropylamide]	< 30 µM

Results, then the compound that gave them:

IC50	SMILES
< 30 µM	COc1ccccc1CNc1ncc2c(Nc3ccc(F)cc3F)nccc2n1 [Compound 37, N5-(2,4-Difluoro-phenyl)-N2-(2-methoxy-benzyl)-pyrido[4,3-d]pyrimidine-2,5-diamine]
< 30 µM	COc1ccccc1CNc1ncc2c(Nc3ccc(OC)c(OC)c3)nccc2n1 [Compound 38, N5-(3,4-Dimethoxy-phenyl)-N2-(2-methoxy-benzyl)-pyrido[4,3-d]pyrimidine-2,5-diamine]
< 30 µM	COc1ccccc1CNc1ncc2c(Nc3ccc4c(c3)OCCO4)nccc2n1 [Compound 39, N5-(2,3-Dihydro-benzo[1,4]dioxin-6-yl)-N2-(2-methoxy-benzyl)-pyrido[4,3-d]pyrimidine-2,5-diamine]
< 30 µM	COc1ccc(Nc2nccc3nc(NCc4ccccc4OC)ncc23)c(OC)c1 [Compound 40, N5-(2,4-Dimethoxy-phenyl)-N2-(2-methoxy-benzyl)-pyrido[4,3-d]pyrimidine-2,5-diamine]
< 30 µM	COc1ccccc1CNc1ncc2c(Nc3ccc(F)cc3C)nccc2n1 [Compound 41, N5-(4-Fluoro-2-methyl-phenyl)-N2-(2-methoxy-benzyl)-pyrido[4,3-d]pyrimidine-2,5-diamine]
< 30 µM	Fc1ccc(Nc2nccc3nc(NCc4ccc(Cl)cc4)ncc23)cc1 [Compound 42, N2-(4-Chloro-benzyl)-N5-(4-fluoro-phenyl)-pyrido[4,3-d]pyrimidine-2,5-diamine]
< 10 µM	COc1ccc(CNc2ncc3c(Nc4ccc(F)cc4C)nccc3n2)cc1 [Compound 59, N5-(4-Fluoro-2-methyl-phenyl)-N2-(4-methoxy-benzyl)-pyrido[4,3-d]pyrimidine-2,5-diamine]
< 5 µM	O=C(NCc1cccnc1)C1CCN(c2nccc3nc(NCc4ccccc4Cl)ncc23)CC1 [Compound 62, 1-[2-(2-Chloro-benzylamino)-pyrido[4,3-d]pyrimidin-5-yl]-piperidine-4-carboxylic acid (pyridin-3-ylmethyl)-amide]
< 10 µM	CCN(CC)CCCNC(=O)C1CCN(c2nccc3nc(NCc4ccccc4Cl)ncc23)CC1 [Compound 63, 1-[2-(2-Chloro-benzylamino)-pyrido[4,3-d]pyrimidin-5-yl]-piperidine-4-carboxylic acid (3-diethylamino-propyl)-amide]
< 10 µM	CN(C)CCNC(=O)C1CCN(c2nccc3nc(NCc4ccccc4Cl)ncc23)CC1 [Compound 64, 1-[2-(2-Chloro-benzylamino)-pyrido[4,3-d]pyrimidin-5-yl]-piperidine-4-carboxylic acid (2-dimethylamino-ethyl)-amide]
< 5 µM	O=C(NCc1ccco1)C1CCN(c2nccc3nc(NCc4ccccc4Cl)ncc23)CC1 [Compound 65, 1-[2-(2-Chloro-benzylamino)-pyrido[4,3-d]pyrimidin-5-yl]-piperidine-4-carboxylic acid (furan-2-ylmethyl)-amide]
< 5 µM	O=C(C1CCN(c2nccc3nc(NCc4ccccc4Cl)ncc23)CC1)N1CCCC1 [Compound 66, {1-[2-(2-Chloro-benzylamino)-pyrido[4,3-d]pyrimidin-5-yl]-piperidin-4-yl}-pyrrolidin-1-yl-methanone]
< 5 µM	CC(C)NC(=O)C1CCN(c2nccc3nc(NCc4ccccc4Cl)ncc23)CC1 [Compound 67, 1-[2-(2-Chloro-benzylamino)-pyrido[4,3-d]pyrimidin-5-yl]-piperidine-4-carboxylic acid isopropylamide]
< 10 µM	CCCNC(=O)C1CCN(c2nccc3nc(NCc4ccccc4Cl)ncc23)CC1 [Compound 68, 1-[2-(2-Chloro-benzylamino)-pyrido[4,3-d]pyrimidin-5-yl]-piperidine-4-carboxylic acid propylamide]
